Results as given in ChEMBL document CHEMBL4017540, “Synthesis of Potent and Selective Inhibitors of Aldo-Keto Reductase 1B10 and Their Efficacy against Proliferation, Metastasis, and Cisplatin Resistance of Lung Cancer Cells” (J Med Chem, 2017).
Positions count from the first letter of the chain named. pIC50, pKi: −log10 of the molar value.

Assays:
[1] = target: T1, Aldo-keto reductase family 1 member B1 (Homo sapiens, UniProt P15121); experiment: Inhibition of recombinant human AKR1B1 using pyridine-3-aldehyde as substrate
[2] = target: T2, Aldo-keto reductase family 1 member B10 (Homo sapiens, UniProt O60218); experiment: Inhibition of recombinant human AKR1B10 using pyridine-3-aldehyde as substrate
T2 sequence (O60218 whole entry): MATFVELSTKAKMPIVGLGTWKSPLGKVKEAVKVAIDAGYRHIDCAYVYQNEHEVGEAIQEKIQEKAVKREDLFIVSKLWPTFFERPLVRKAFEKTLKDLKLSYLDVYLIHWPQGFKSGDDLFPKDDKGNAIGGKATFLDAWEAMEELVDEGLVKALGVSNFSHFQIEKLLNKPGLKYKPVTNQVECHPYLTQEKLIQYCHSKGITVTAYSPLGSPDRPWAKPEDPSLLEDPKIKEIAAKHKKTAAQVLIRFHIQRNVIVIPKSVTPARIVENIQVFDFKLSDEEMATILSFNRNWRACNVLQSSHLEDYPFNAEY

[3] = target: T3, Carbonyl reductase [NADPH] 1 (Homo sapiens, UniProt P16152); experiment: Inhibition of recombinant human CBR1 using isatin as substrate
T3 sequence (P16152 whole entry): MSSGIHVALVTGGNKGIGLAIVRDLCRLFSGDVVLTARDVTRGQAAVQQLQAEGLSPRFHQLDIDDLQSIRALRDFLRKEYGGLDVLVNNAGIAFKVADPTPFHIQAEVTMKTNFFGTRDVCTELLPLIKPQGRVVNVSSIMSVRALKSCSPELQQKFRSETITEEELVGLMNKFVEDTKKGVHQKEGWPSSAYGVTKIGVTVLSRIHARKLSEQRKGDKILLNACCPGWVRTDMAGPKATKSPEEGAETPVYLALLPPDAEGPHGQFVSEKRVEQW

[4] = Competitive inhibition of recombinant human AKR1B10 Lys125Leu mutant in presence of geraniol as substrate by Lineweaver-Burk plot method
[5] = target: T4, Aldo-keto reductase family 1 member C3 (Homo sapiens, UniProt P42330); experiment: Inhibition of recombinant human AKR1C3 using S-tetralol as substrate
T4 sequence (P42330 whole entry): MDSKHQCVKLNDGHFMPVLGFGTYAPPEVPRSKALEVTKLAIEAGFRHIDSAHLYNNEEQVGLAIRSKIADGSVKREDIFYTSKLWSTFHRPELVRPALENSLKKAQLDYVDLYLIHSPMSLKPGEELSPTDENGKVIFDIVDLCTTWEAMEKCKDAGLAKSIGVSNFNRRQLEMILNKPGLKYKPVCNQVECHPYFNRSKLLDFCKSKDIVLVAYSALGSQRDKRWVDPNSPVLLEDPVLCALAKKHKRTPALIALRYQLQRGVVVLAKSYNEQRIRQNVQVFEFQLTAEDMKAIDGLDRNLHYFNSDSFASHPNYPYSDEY

[6] = Competitive inhibition of recombinant human AKR1B10 Val301Leu mutant in presence of geraniol as substrate by Lineweaver-Burk plot method
[7] = target: T5, Aldo-keto reductase family 1 member C1 (Homo sapiens, UniProt Q04828); experiment: Inhibition of recombinant human AKR1C1 using S-tetralol as substrate
T5 sequence (Q04828 whole entry): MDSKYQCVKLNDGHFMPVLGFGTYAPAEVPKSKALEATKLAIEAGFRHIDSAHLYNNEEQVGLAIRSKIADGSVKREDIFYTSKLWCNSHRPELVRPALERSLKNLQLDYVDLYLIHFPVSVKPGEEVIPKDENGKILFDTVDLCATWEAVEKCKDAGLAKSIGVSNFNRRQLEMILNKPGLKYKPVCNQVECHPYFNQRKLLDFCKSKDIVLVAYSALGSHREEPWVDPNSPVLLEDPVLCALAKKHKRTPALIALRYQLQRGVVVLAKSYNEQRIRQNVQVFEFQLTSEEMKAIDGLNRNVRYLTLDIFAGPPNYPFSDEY

[8] = target: T6, Aldo-keto reductase family 1 member A1 (Homo sapiens, UniProt P14550); experiment: Inhibition of recombinant human AKR1A1 using pyridine-3-aldehyde as substrate
T6 sequence (P14550 whole entry): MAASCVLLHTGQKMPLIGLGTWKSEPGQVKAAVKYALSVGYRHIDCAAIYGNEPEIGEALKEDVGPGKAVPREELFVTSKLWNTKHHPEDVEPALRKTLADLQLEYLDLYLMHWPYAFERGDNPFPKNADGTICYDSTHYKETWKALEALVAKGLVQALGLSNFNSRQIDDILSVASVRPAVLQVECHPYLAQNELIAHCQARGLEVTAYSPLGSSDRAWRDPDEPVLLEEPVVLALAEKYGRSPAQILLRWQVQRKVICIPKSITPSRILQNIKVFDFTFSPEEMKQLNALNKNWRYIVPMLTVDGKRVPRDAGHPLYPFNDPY

[9] = target: T7, Aldo-keto reductase family 1 member C4 (Homo sapiens, UniProt P17516); experiment: Inhibition of recombinant human AKR1C4 using S-tetralol as substrate
T7 sequence (P17516 whole entry): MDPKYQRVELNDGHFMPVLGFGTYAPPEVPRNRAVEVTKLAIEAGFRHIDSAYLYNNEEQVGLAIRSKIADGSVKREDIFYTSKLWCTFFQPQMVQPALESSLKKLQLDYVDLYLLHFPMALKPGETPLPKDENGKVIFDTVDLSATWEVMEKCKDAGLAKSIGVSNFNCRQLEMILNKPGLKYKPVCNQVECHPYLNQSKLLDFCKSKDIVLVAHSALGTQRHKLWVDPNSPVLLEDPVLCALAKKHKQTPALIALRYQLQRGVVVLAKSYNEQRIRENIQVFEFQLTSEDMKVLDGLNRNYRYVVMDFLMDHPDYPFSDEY

[10] = target: T8, Aldo-keto reductase family 1 member C2 (Homo sapiens, UniProt P52895); experiment: Inhibition of recombinant human AKR1C2 using S-tetralol as substrate
T8 sequence (P52895 whole entry): T5 sequence (Q04828 whole entry) with T38V, R47H, L54V, C87S, V151M, R170H, Q172L

[11] = Competitive inhibition of recombinant human AKR1B10 Trp220Tyr mutant in presence of geraniol as substrate by Lineweaver-Burk plot method
[12] = target: T2, Aldo-keto reductase family 1 member B10; experiment: Competitive inhibition of recombinant human AKR1B10 in presence of geraniol as substrate by Lineweaver-Burk plot method
[13] = Competitive inhibition of recombinant human AKR1B10 Gln303Ser mutant in presence of geraniol as substrate by Lineweaver-Burk plot method
[14] = target: T2, Aldo-keto reductase family 1 member B10; experiment: Inhibition of human recombinant AKR1B10 (1 to 316 residues) expressed in Escherichia coli using pyridine-3-aldehyde as substrate
[15] = target: T1, Aldo-keto reductase family 1 member B1; experiment: Inhibition of human recombinant AKR1B1 (1 to 316 residues) expressed in Escherichia coli using pyridine-3-aldehyde as substrate
[16] = target: T2, Aldo-keto reductase family 1 member B10; experiment: Inhibition of AKR1B10 (unknown origin)
[17] = target: T1, Aldo-keto reductase family 1 member B1; experiment: Inhibition of AKR1B1 (unknown origin)
[18] = target: T1, Aldo-keto reductase family 1 member B1; experiment: Inhibition of recombinant human AKR1B1 using pyridine-3-aldehyde as substrate by fluorescence assay
[19] = target: T2, Aldo-keto reductase family 1 member B10; experiment: Inhibition of recombinant human intestinal N-terminal 6-His-tagged AKR1B10 expressed in Escherichia coli BL21 (DE3) pLysS cells using pyridine-3-aldehyde as substrate by fluorescence assay

pIC50 [1] | pIC50 [2] | Compound | further results
7.01 | 7.70 | O=C(NCCc1ccc(O)cc1)c1cc2ccc(O)cc2oc1=O | –
6.47 | 8.22 | O=C(NCCCc1cccc(F)c1)c1cc2ccc(O)cc2oc1=O | –
6.70 | 8.15 | Cc1ccc(CCCNC(=O)c2cc3ccc(O)cc3oc2=O)cc1 | –
6.49 | 8.11 | O=C(NCCCc1cc(F)cc(F)c1)c1cc2ccc(O)cc2oc1=O | –
6.50 | 7.96 | O=C(NCCCCc1ccc(O)cc1)c1cc2ccc(O)cc2oc1=O | –
6.74 | 8.08 | O=C(NCCCc1cccc(O)c1)c1cc2ccc(O)cc2oc1=O | –
5.02 | 5.82 | O=C(NCCCc1ccc(O)cc1)c1cc2cccc(O)c2oc1=O | –
6.69 | 8.38 | O=C(NCCCc1ccc(O)cc1)c1cc2ccc(O)cc2oc1=O | pIC50 [3]: 5.38; pKi [4]: 8.16; pIC50 [5]: 5.80; pKi [6]: 8.01; pIC50 [7]: 6.02; pIC50 [8]: 5.82; pIC50 [9]: 6.09; pIC50 [10]: 6.01; pKi [11]: 7.85; pKi [12]: 8.64; pKi [13]: 8.60
– | – | C[C@@]12CCC[C@H]1[C@@H]1C[C@@H](O)[C@@]3(O)C[C@@H](O)CC[C@]3(CO)[C@H]1CC2 | pIC50 [14]: 6.08; pIC50 [15]: < 4.00
6.41 | 7.96 | COc1ccc(CCCNC(=O)c2cc3ccc(O)cc3oc2=O)cc1 | –
7.82 | 8.12 | COc1ccc(/N=c2\oc3cc(O)ccc3cc2C(=O)NCCCc2cccc(O)c2)cc1 | –
6.56 | 8.46 | O=C(NCCCc1ccc(F)cc1)c1cc2ccc(O)cc2oc1=O | pIC50 [3]: 5.96; pIC50 [5]: 6.33; pIC50 [7]: 4.92; pIC50 [8]: 5.77; pIC50 [9]: 6.46; pIC50 [10]: 6.21
< 5.00 | 5.57 | O=C(NCCCc1ccc(O)cc1)c1cc2ccccc2oc1=O | –
6.66 | 8.19 | O=C(NCCCc1ccccc1O)c1cc2ccc(O)cc2oc1=O | –
– | – | O=C(/C=C/c1ccc(O)cc1)CC(=O)/C=C/c1ccc(O)cc1 [BISDEMETHOXYCURCUMIN] | pIC50 [16]: 7.22; pIC50 [17]: 5.29
– | – | C[C@H](CCC(=O)O)[C@H]1CC[C@H]2[C@@H]3CC[C@@H]4C[C@@H](O)CC[C@]4(C)[C@H]3CC[C@]12C [ISOLITHOCHOLIC ACID] | pIC50 [18]: 5.16; pIC50 [19]: 7.57
